Common to all, as to format: cell-based, human
The subject of one assay is A549 lung cancer cells. The assay is described as follows: MTS cell viability assay, A549. The conditions noted are these: read-out: EC50 (effective concentration that resulted in 50% cell viability). How it is done: (§1) Human breast (HCC38, MCF-7, MDA-MB-231, SK-BR-3, T-47D, and ZR-75-1), lung (A549 and H520), and prostate (DU145 and PC-3) cancer cell lines were obtained from American Culture Type Collection (ATCC). The HCC38, MCF-7, MDA-MB-231, SK-BR-3, T-47D, ZR-75-1, and A549 cells were grown in MEM supplemented with 10% FBS, 25 mM HEPES buffer (pH 7.4), penicillin (100 U/mL), and streptomycin (100 μg/mL). The H520, DU145, and PC-3 cell lines were grown in RPMI-1640 supplemented with 10% FBS, 25 mM HEPES buffer (pH 7.4), penicillin (100 U/mL), and streptomycin (100 μg/mL). All cell lines were maintained at 37° C. in a humidified, 5% CO2 atmosphere.
(§2) Cells were cultured at a density of 2-3.5×10^3 cells per well in flat bottomed 96-well plates in 100 μL of complete growth medium and incubated for 2 days to reach ˜50% confluence. The cells were then treated with solvent or the appropriate drugs (CDDP stock was dissolved in 0.15 M NaCl, carboplatin stock was dissolved in 5% glucose, synthesized Pt(IV) complexes were dissolved in DMSO) for 1 hour, washed three times with 100 μL PBS, and incubated in 100 μL of fresh medium. After 2 days, the medium was replaced with 120 μL of medium containing CellTiter 96® Aqueous One Solution Reagent (MTS reagent) (Promega, Madison, Wis.). The cells were incubated at 37° C. for 4 hours and the cell viability was determined by measuring the absorbance at 490 nm using a Tecan Infinite M1000 microplate reader. The 48 h treatment was done in a similar manner, except the cells were not washed after treatment and the MTS reagent was immediately added. Viability of treated groups was calculated as a percent of control and graphed with GraphPad Prism.
(§3) The anti-proliferative activities of Pt(IV) complexes were determined in two lung (A549 and H520), two prostate (DU145 and PC-3), and six breast (HCC38, MCF-7, MDA-MB-231, SK-BR-3, T-47D, and ZR-75-1) cancer cell lines. The cells were treated with increasing concentrations of cisplatin (CDDP), carboplatin, or the Pt(IV) complexes for 1 or 48 hours, and the viability was measured using an MTS colorimetric cell proliferation assay. Graphs of the results are shown for DU145 (FIG. 8A), PC-3 (FIG. 8B), SK-BR-3 (FIG. 8C), ZR-75-1 (FIG. 8D), A549 (FIG. 8E), and MCF-7 (FIG. 8F).
(In general: Formazan colour is commonly taken as a measure of viable cells.)

Assay [1] relates to MCF-7 breast cancer cells. Description: MTS cell viability assay, MCF-7. The conditions noted are these: read-out: EC50 (effective concentration that resulted in 50% cell viability). As for the experimental part: as §1, §2, §3
The test system of assay [2] is DU145 prostate cancer cells. The note with it: for EC50: read-out: EC50 (effective concentration that resulted in 50% cell viability); for anti-proliferative activity compared to cisplatin (in words): DU145, one and 48 hours treatment (FIG. 8H). How it is done:
as §1, §2, §3
(§4) The anti-proliferative activities of certain Pt(II) complexes were determined in DU145, PC-3, and SK-BR-3 cells. The cells were treated with increasing concentrations of cisplatin (CDDP) or the Pt(II) complexes for 1 or 48 hours, and the viability was measured using an MTS colorimetric cell proliferation assay.

For assay [3], the system named is HCC38 breast cancer cells. The assay is described as follows: MTS cell viability assay, HCC38. The conditions noted are these: read-out: EC50 (effective concentration that resulted in 50% cell viability). As for the experimental part: as §1, §2, §3
In assay [4] the test system is ZR-75-1 breast cancer cells. Description: MTS cell viability assay, ZR-75-1. The conditions noted are these: read-out: EC50 (effective concentration that resulted in 50% cell viability). How it is done:
as §1, §2, §3

Assay [5] has as its system PC-3 prostate cancer cells. Description: MTS cell viability assay, PC-3. The conditions noted are these: for EC50: read-out: EC50 (effective concentration that resulted in 50% cell viability); for anti-proliferative activity compared to cisplatin (in words): PC-3, one and 48 hours treatment (FIG. 8I). How it is done:
as §1, §2, §3, §4

In the next assay the test system is H520 lung cancer cells. Description: MTS cell viability assay, H520. The note with it: read-out: EC50 (effective concentration that resulted in 50% cell viability). How it is done: as §1, §2, §3
For assay [6], the system named is T-47D breast cancer cells. The assay is described as follows: MTS cell viability assay, T-47D. How it is done:
as §1, §2, §3

The subject of assay [7] is MDA-MB-231 breast cancer cells. The assay is described as follows: MTS cell viability assay, MDA-MB-231. The conditions noted are these: read-out: EC50 (effective concentration that resulted in 50% cell viability). As for the experimental part:
as §1, §2, §3

The test system of assay [8] is SK-BR-3 breast cancer cells. The assay is described as follows: MTS cell viability assay, SK-BR-3. The conditions noted are these: for EC50: read-out: EC50 (effective concentration that resulted in 50% cell viability); for anti-proliferative activity compared to cisplatin (in words): SK-BR-3, one and 48 hours treatment (FIG. 8G). How it is done:
as §1, §2, §3, §4

Where [9] appears, read: ZR-75-1, 1 h treatment, Table 2.
Where [10] appears, read: ZR-75-1, 48 h treatment, Table 4.
The mark [11] stands for this setting: 1 h treatment, Table 2, read-out: EC50 (effective concentration that resulted in 50% cell viability).
The mark [12] stands for this setting: 48 h treatment, Table 4, read-out: EC50 (effective concentration that resulted in 50% cell viability).
Where [13] appears, read: MDA-MB-231, 1 h treatment, Table 2.
Setting [14] is: MDA-MB-231, 48 h treatment, Table 4.
The mark [15] stands for this setting: SK-BR-3, 1 h treatment, Table 2.
Where [16] appears, read: SK-BR-3, 48 h treatment, Table 4.

Where two headings read alike, the source gives them in different places.

With `N.N.O=C([O-])C1(C(=O)[O-])CCC1.[Pt+2]` [Carboplatin, carboplatin, reference compound], the EC50 in the assay on A549 lung cancer cells (A549, 1 h treatment, Table 2) was greater than 1000 µM; with A549 lung cancer cells (A549, 1 h treatment, Table 3), greater than 1000 µM; in the assay on A549 lung cancer cells (A549, 48 h, Table 5), 300 ± 30 µM; with A549 lung cancer cells (A549, 48 h treatment, Table 4) it was 300 ± 30 µM; in assay [1] (MCF-7, 1 h treatment, Table 2), greater than 1000 µM; in assay [1] (MCF-7, 1 h treatment, Table 3), greater than 1000 µM. Moreover, the EC50 is 800 ± 100 µM in assay [1] (MCF-7, 48 h, Table 5); 800 ± 100 µM in assay [1] (MCF-7, 48 h treatment, Table 4); greater than 1000 µM in [2] (DU145, 1 h treatment, Table 2); greater than 1000 µM in [2] (DU145, 1 h treatment, Table 3); 400 ± 100 µM in [2] (DU145, 48 h, Table 5); 400 ± 100 µM in assay [2] (DU145, 48 h treatment, Table 4). Also, the “effect on cell viability (in words)” value in assay [2] (DU145, 1 hour treatment (FIG. 8A, top), up to 1 mM carboplatin, 100 μM Pt(IV)-1C, 50 μM Pt(IV)-2C) was “no effect”.

Take `COc1ccnc(-c2cc(OC)ccn2)c1.[Cl][Pt][Cl]` [Pt(II)-1C]: the EC50 was 80 ± 20 µM in assay [3] (HCC38, 1 h treatment, Table 2); 57 ± 2 µM in [3] (HCC38, 48 h treatment, Table 4); 67 ± 27 µM in assay [4] (setting [9]); 26 ± 1 µM in [4] (setting [10]); greater than 100 µM with A549 lung cancer cells (A549, 1 h treatment, Table 2); greater than 100 µM in the assay on A549 lung cancer cells (A549, 48 h treatment, Table 4). Moreover, the EC50 in [5] (PC-3, 1 h treatment, Table 2) is greater than 100 µM; in assay [5] (PC-3, 48 h treatment, Table 4) it was 40 ± 7 µM; in the assay with H520 lung cancer cells (H520, 1 h treatment, Table 2), greater than 100 µM; in the assay with H520 lung cancer cells (H520, 48 h treatment, Table 4), 30 ± 2 µM; in [6] (setting [11]), 20 ± 1 µM; in assay [6] (setting [12]), 21 ± 1 µM. For the same compound, the EC50 was greater than 100 µM in assay [7] (setting [13]); greater than 100 µM in [7] (setting [14]); 19 ± 5 µM in [8] (setting [15]); 23 ± 2 µM in assay [8] (setting [16]); greater than 100 µM in [1] (MCF-7, 1 h treatment, Table 2); greater than 100 µM in assay [1] (MCF-7, 48 h treatment, Table 4). For the same compound, the EC50 in assay [2] (DU145, 1 h treatment, Table 2) was 40 ± 10 µM; in [2] (DU145, 48 h treatment, Table 4), 24 ± 2 µM.

As for `CCOc1ccnc(-c2cc(OCC)ccn2)c1.[Cl][Pt][Cl]` [Pt(II)-2C], the EC50 in assay [3] (HCC38, 1 h treatment, Table 2) is 18 ± 4 µM; in assay [3] (HCC38, 48 h treatment, Table 4) it was 20 ± 3 µM; in [4] (setting [9]) it was 58 ± 15 µM; in [4] (setting [10]), 16.5 µM; in the assay with A549 lung cancer cells (A549, 1 h treatment, Table 2), greater than 100 µM; in the assay on A549 lung cancer cells (A549, 48 h treatment, Table 4) it was 66 ± 7 µM. In addition, the EC50 in assay [5] (PC-3, 1 h treatment, Table 2) was 22 ± 5 µM; in assay [5] (PC-3, 48 h treatment, Table 4) it was 21 ± 7 µM; with H520 lung cancer cells (H520, 1 h treatment, Table 2), greater than 100 µM; in the assay with H520 lung cancer cells (H520, 48 h treatment, Table 4), 21 ± 1 µM; in assay [6] (setting [11]), 5 ± 2 µM; in assay [6] (setting [12]) it was 2.2 ± 0.4 µM. The EC50 in assay [7] (setting [13]) was 30 ± 20 µM; in assay [7] (setting [14]), 20 ± 6 µM; in assay [8] (setting [15]) it was 2.2 ± 0.2 µM; in assay [8] (setting [16]), 1.8 µM; in assay [1] (MCF-7, 1 h treatment, Table 2), greater than 100 µM; in assay [1] (MCF-7, 48 h treatment, Table 4), greater than 100 µM. Also, the EC50 was 20 ± 5 µM in assay [2] (DU145, 1 h treatment, Table 2) and 11 ± 4 µM in assay [2] (DU145, 48 h treatment, Table 4).

Take `CCCOc1ccnc(-c2cc(OCCC)ccn2)c1.[Cl][Pt][Cl]` [Pt(II)-3C]: the EC50 was found to be 3 ± 2 µM in assay [3] (HCC38, 1 h treatment, Table 2); 4.7 ± 0.5 µM in assay [3] (HCC38, 48 h treatment, Table 4); 8.9 ± 0.4 µM in [4] (setting [9]); 5 ± 1 µM in [4] (setting [10]); 48 ± 3 µM in the assay with A549 lung cancer cells (A549, 1 h treatment, Table 2); 17 ± 1 µM in the assay with A549 lung cancer cells (A549, 48 h treatment, Table 4). Moreover, the EC50 is 5 ± 1 µM in assay [5] (PC-3, 1 h treatment, Table 2); 5.1 ± 0.8 µM in assay [5] (PC-3, 48 h treatment, Table 4); 40 ± 20 µM with H520 lung cancer cells (H520, 1 h treatment, Table 2); 13 ± 5 µM in the assay on H520 lung cancer cells (H520, 48 h treatment, Table 4); 2.4 ± 0.1 µM in [6] (setting [11]); 1.9 ± 0.1 µM in assay [6] (setting [12]). Also, the EC50 in assay [7] (setting [13]) is 4 ± 2 µM; in assay [7] (setting [14]), 2.2 ± 0.1 µM; in assay [8] (setting [15]), 1.81 ± 0.03 µM; in [8] (setting [16]), 1.73 ± 0.01 µM; in [1] (MCF-7, 1 h treatment, Table 2) it was 100 µM; in [1] (MCF-7, 48 h treatment, Table 4) it was 19 ± 4 µM. Further, the EC50 in [2] (DU145, 1 h treatment, Table 2) came out at 6 ± 1 µM; in [2] (DU145, 48 h treatment, Table 4), 4 ± 2 µM.

In the case of `CCOCCOCCOC(=O)c1ccnc(-c2cc(C(=O)OCCOCCOCC)ccn2)c1.[Cl][Pt][Cl]` [Pt(II)-COO(C2O)2C2], the “anti-proliferative activity compared to cisplatin (in words)” value in [5], in assay [8] and in assay [2] was “not as effective as cisplatin” throughout. Besides, in [8] (SK-BR-3 (FIG. 8G)), the “reduction in cell viability, one hour versus 48 hours treatment” value is recorded as “greater reduction in cell viability than when they were treated for 48 hours”.

As to `COC(=O)c1ccnc(-c2cc(C(=O)OC)ccn2)c1.[Cl][Pt][Cl]` [Pt(II)-COOC1], the “anti-proliferative activity compared to cisplatin (in words)” value in assay [5], in [8] and in assay [2] was “generally more effective than cisplatin” each time.

`CCOC(=O)c1ccnc(-c2cc(C(=O)OCC)ccn2)c1.[Cl][Pt][Cl]` [Pt(II)-COOC2]: the “anti-proliferative activity compared to cisplatin (in words)” value in assay [5], in assay [8] and in assay [2] was “generally more effective than cisplatin” each time.

As to `CCCCCCCCOC(=O)c1ccnc(-c2cc(C(=O)OCCCCCCCC)ccn2)c1.[Cl][Pt][Cl]` [Pt(II)-COOC8], the “anti-proliferative activity compared to cisplatin (in words)” value in assay [5], in assay [8] and in [2] was “generally more effective than cisplatin” throughout.

These data come from patent US10316050B2, “PT (IV) complexes containing 4,4′-disubstituted-2,2′-bipyridyl and their use in cancer therapy” (THE BOARD OF REGENTS OF THE NEVADA SYSTEM OF HIGHER …, priority 2014, dated 2019).
